Measured values taken from patent US7691584B2, “Screening of compounds for OCT3 transporter activity” (XenoPort, Inc., priority 2005, dated 2010).

Columns and labels:
hOCT3 [1] = biological target: T1, hOCT3 (Homo sapiens, UniProt O75751); assay: hOCT3 direct uptake assay (LC-MS-MS, CHO-TREx-hOCT3 cells); settings: specific uptake (induced minus non-induced)
hOCT3 [2] = biological target: T1, hOCT3; assay: hOCT3 competition uptake assay (3H-MPP uptake into CHO-TREx-hOCT3 cells)
PgP = biological target: T2, PgP (Homo sapiens, UniProt P08183); assay: Transwell monolayer efflux assay, MDCK cells with TREx-PgP; assay type: cell-based; settings: 2.5 nM 3H-vinblastine, in the presence of 250 μM verapamil
T2 construct: expressed in transfected cells; host or cells: MDCK cells transfected with tetracycline-inducible TREx-PgP
Protocol: Transwell monolayer efflux assays can be performed by transfecting MDCK cells with the tetracycline-inducible TREx-PgP expression vector. The cells optionally can be transfected with a nucleic acid encoding the transporter of interest. The transfected cells are seeded on polycarbonate filter membranes in transwell dishes and grown for 3-5 days, yielding a polarized monolayer with tight junctions between cells.

[3] = substrate: NCCc1c[nH]cn1; assay: cells, lysate or membranes; settings: other: CHO-TREx-hOCT3 cells, specific uptake (induced minus non-induced)

T2 sequence (P08183 whole entry): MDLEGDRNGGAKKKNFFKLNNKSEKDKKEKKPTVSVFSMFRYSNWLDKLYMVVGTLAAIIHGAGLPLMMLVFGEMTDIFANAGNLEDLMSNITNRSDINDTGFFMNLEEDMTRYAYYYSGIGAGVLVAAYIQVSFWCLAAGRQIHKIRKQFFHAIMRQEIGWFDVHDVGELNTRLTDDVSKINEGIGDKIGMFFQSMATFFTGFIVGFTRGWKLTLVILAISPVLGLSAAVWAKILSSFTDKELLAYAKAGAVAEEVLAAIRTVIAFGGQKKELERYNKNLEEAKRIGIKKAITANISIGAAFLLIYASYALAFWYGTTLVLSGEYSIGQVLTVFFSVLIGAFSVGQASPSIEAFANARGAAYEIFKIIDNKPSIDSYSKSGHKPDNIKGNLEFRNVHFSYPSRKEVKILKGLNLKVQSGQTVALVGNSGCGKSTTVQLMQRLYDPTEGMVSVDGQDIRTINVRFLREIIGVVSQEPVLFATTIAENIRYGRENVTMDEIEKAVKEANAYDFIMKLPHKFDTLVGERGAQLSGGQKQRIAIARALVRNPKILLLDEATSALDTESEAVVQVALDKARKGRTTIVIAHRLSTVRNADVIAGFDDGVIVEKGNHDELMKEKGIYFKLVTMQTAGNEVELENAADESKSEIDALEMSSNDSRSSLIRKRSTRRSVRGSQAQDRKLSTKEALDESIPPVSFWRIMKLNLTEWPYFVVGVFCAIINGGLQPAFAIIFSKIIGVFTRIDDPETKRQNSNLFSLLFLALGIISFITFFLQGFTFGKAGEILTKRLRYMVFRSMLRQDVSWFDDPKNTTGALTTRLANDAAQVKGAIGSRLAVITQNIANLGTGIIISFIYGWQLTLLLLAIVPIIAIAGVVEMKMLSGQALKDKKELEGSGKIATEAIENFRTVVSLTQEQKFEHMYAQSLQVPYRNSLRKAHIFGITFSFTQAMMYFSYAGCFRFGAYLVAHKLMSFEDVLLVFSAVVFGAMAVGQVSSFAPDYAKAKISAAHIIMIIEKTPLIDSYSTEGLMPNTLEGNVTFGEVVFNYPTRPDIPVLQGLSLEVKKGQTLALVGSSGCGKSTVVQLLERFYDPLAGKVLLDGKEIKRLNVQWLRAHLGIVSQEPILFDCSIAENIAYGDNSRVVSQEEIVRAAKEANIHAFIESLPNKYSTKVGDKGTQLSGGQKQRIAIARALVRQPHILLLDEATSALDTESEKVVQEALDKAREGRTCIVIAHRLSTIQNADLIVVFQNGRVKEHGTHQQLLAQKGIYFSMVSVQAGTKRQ

## NCCc1c[nH]cn1 [Histamine, histamine]
hOCT3 [1]
  Direct Uptake Vmax: 4.6 pmol/min/well
hOCT3 [2]
  IC50: 150 µM
hOCT3 [2]; cells induced to express OCT3, FIG. 2
  uptake of labeled MPP with increasing concentration of unlabeled competitor: decreased

## CC[C@]1(O)C[C@@H]2CN(CCc3c([nH]c4ccccc34)[C@@](C(=O)OC)(c3cc4c(cc3OC)N(C)[C@H]3[C@@](O)(C(=O)OC)[C@H](OC(C)=O)[C@]5(CC)C=CCN6CC[C@]43[C@@H]65)C2)C1 [^3H-vinblastine, vinblastine]
PgP
  apical to basolateral transport: strongly increased
  basolateral to apical transport: strongly decreased

B1: hOCT3 (Homo sapiens) (protein)
chain: MPSFDEALQRVGEFGRFQRRVFLLLCLTGVTFAFLFVGVVFLGTQPDHYWCRGPSAAALAERCGWSPEEEWNRTAPASRGPEPPERRGRCQRYLLEAANDSASATSALSCADPLAAFPNRSAPLVPCRGGWRYAQAHSTIVSEFDLVCVNAWMLDLTQAILNLGFLTGAFTLGYAADRYGRIVIYLLSCLGVGVTGVVVAFAPNFPVFVIFRFLQGVFGKGTWMTCYVIVTEIVGSKQRRIVGIVIQMFFTLGIIILPGIAYFIPNWQGIQLAITLPSFLFLLYYWVVPESPRWLITRKKGDKALQILRRIAKCNGKYLSSNYSEITVTDEEVSNPSFLDLVRTPQMRKCTLILMFAWFTSAVVYQGLVMRLGIIGGNLYIDFFISGVVELPGALLILLTIERLGRRLPFAASNIVAGVACLVTAFLPEGIAWLRTTVATLGRLGITMAFEIVYLVNSELYPTTLRNFGVSLCSGLCDFGGIIAPFLLFRLAAVWLELPLIIFGILASICGGLVMLLPETKGIALPETVDDVEKLGSPHSCKCGRNKKTPVSRSHL
[3]
  Km: 110 µM
